Measured values published in US20240287007A1, “N-(1,3,4-OXADIAZOL-2-YL)PHENYLCARBOXAMIDES AS HERBICIDES” (BAYER AKTIENGESELLSCHAFT, priority 2021, published 2024).

Experiments:
Format in all cases: in vivo
[1] = system: PHBPU (Pharbitis purpurea); test: Pre-emergence herbicidal effect against PHBPU; details: 80 g/ha, scored visually after 3 weeks
Description: (§1) Seeds of monocotyledonous and dicotyledonous weed plants and crop plants are laid out in sandy loam soil in wood-fiber pots and covered with soil. The compounds of the invention, formulated in the form of wettable powders (WP) or as emulsion concentrates (EC), are then applied to the surface of the covering soil as aqueous suspension or emulsion at a water application rate equating to 600 to 800 l/ha with addition of 0.2% wetting agent. After the treatment, the pots are placed in a greenhouse and kept under good growth conditions for the trial plants. The damage to the test plants is scored visually after a test period of 3 weeks by comparison with untreated controls (herbicidal activity in percent (%): 100% activity=the plants have died, 0% activity=like control plants).

LOLRI (Lolium rigidum) [2] = test: Pre-emergence herbicidal effect against LOLRI; details: scored visually after 3 weeks
Description: as §1

VERPE (Veronica persica) [3] = test: Pre-emergence herbicidal effect against VERPE; details: scored visually after 3 weeks
Description: as §1

[4] = system: ABUTH (Abutylon threophrasti); test: Post-emergence herbicidal action against ABUTH; details: visual assessment after about 3 weeks
Description: (§2) Seeds of monocotyledonous and dicotyledonous weed and crop plants are laid out in sandy loam soil in wood-fiber pots, covered with soil and cultivated in a greenhouse under good growth conditions. 2 to 3 weeks after sowing, the trial plants are treated at the one-leaf stage. The compounds of the invention, formulated in the form of wettable powders (WP) or as emulsion concentrates (EC), are then sprayed onto the green parts of the plants as aqueous suspension or emulsion at a water application rate equating to 600 to 800 l/ha with addition of 0.2% wetting agent. After the test plants have been left to stand in the greenhouse under optimal growth conditions for about 3 weeks, the action of the preparations is assessed visually in comparison to untreated controls (herbicidal action in percent (%): 100% activity=the plants have died, 0% activity=like control plants).

[5] = system: ECHCG (Echinochloa crus-galli); test: Pre-emergence herbicidal effect against ECHCG; details: scored visually after 3 weeks
Description: as §1

KCHSC (Kochia scoparia) [6] = test: Post-emergence herbicidal action against KCHSC; details: visual assessment after about 3 weeks
Description: as §2

[7] = system: AMARE (Amaranthus retroflexus); test: Post-emergence herbicidal action against AMARE; details: visual assessment after about 3 weeks
Description: as §2

KCHSC (Kochia scoparia) [8] = test: Pre-emergence herbicidal effect against KCHSC; details: scored visually after 3 weeks
Description: as §1

[9] = system: ALOMY (Alopecurus myosuroides); test: Pre-emergence herbicidal effect against ALOMY; details: scored visually after 3 weeks
Description: as §1

[10] = system: MATIN (Matricaria inodora); test: Post-emergence herbicidal action against MATIN; details: visual assessment after about 3 weeks
Description: as §2

[11] = system: AMARE (Amaranthus retroflexus); test: Pre-emergence herbicidal effect against AMARE; details: scored visually after 3 weeks
Description: as §1

[12] = system: POLCO (Polygonum convolvulus); test: Post-emergence herbicidal action against POLCO; details: visual assessment after about 3 weeks
Description: as §2

[13] = system: ALOMY (Alopecurus myosuroides); test: Post-emergence herbicidal action against ALOMY; details: visual assessment after about 3 weeks
Description: as §2

VIOTR (Viola tricolor) [14] = test: Post-emergence herbicidal action against VIOTR; details: visual assessment after about 3 weeks
Description: as §2

AVEFA (Avena fatua) = test: Pre-emergence herbicidal effect against AVEFA; details: scored visually after 3 weeks
Description: as §1

LOLRI (Lolium rigidum) [15] = test: Post-emergence herbicidal action against LOLRI; details: visual assessment after about 3 weeks
Description: as §2

VERPE (Veronica persica) [16] = test: Post-emergence herbicidal action against VERPE; details: visual assessment after about 3 weeks
Description: as §2

SETVI (Setaria viridis) [17] = test: Post-emergence herbicidal action against SETVI; details: visual assessment after about 3 weeks
Description: as §2

SETVI (Setaria viridis) [18] = test: Pre-emergence herbicidal effect against SETVI; details: scored visually after 3 weeks
Description: as §1

[19] = system: DIGSA (Digitaria sanguinalis); test: Post-emergence herbicidal action against DIGSA; details: visual assessment after about 3 weeks
Description: as §2

VIOTR (Viola tricolor) [20] = test: Pre-emergence herbicidal effect against VIOTR; details: scored visually after 3 weeks
Description: as §1

[21] = system: ABUTH (Abutylon threophrasti); test: Pre-emergence herbicidal effect against ABUTH; details: 80 g/ha, scored visually after 3 weeks
Description: as §1

[22] = system: DIGSA (Digitaria sanguinalis); test: Pre-emergence herbicidal effect against DIGSA; details: scored visually after 3 weeks
Description: as §1

[23] = system: POLCO (Polygonum convolvulus); test: Pre-emergence herbicidal effect against POLCO; details: scored visually after 3 weeks
Description: as §1

[24] = system: MATIN (Matricaria inodora); test: Pre-emergence herbicidal effect against MATIN; details: scored visually after 3 weeks
Description: as §1

[25] = system: PHBPU (Pharbitis purpurea); test: Post-emergence herbicidal action against PHBPU; details: visual assessment after about 3 weeks
Description: as §2

C[S+]([O-])c1c(OC(F)(F)F)ccc(C(=O)Nc2nnco2)c1Cl (racemic) [Example 1-32, 2-chloro-3-(methylsulfinyl)-N-(1,3,4-oxadiazol-2-yl)-4-(trifluoromethoxy)benzamide]
Pre-emergence effect at 80 g/ha against PHBPU in % [1]: 90%
Pre-emergence effect at 20 g/ha against LOLRI in % (LOLRI (Lolium rigidum) [2]; 20 g/ha): 90%
Pre-emergence effect at 80 g/ha against LOLRI in % (LOLRI (Lolium rigidum) [2]; 80 g/ha): 90%
Pre-emergence effect at 20 g/ha against VERPE in % (VERPE (Veronica persica) [3]; 20 g/ha): 80%
Pre-emergence effect at 80 g/ha against VERPE in % (VERPE (Veronica persica) [3]; 80 g/ha): 90%
Post-emergence effect at 20 g/ha against ABUTH in % ([4]; 20 g/ha): 90%
Post-emergence effect at 80 g/ha against ABUTH in % ([4]; 80 g/ha): 100%
Pre-emergence effect at 20 g/ha against ECHCG in % ([5]; 20 g/ha): 100%
Pre-emergence effect at 80 g/ha against ECHCG in % ([5]; 80 g/ha): 100%
Post-emergence effect at 20 g/ha against KCHSC in % (KCHSC (Kochia scoparia) [6]; 20 g/ha): 100%
Post-emergence effect at 80 g/ha against KCHSC in % (KCHSC (Kochia scoparia) [6]; 80 g/ha): 100%
Post-emergence effect at 20 g/ha against AMARE in % ([7]; 20 g/ha): 100%
Post-emergence effect at 80 g/ha against AMARE in % ([7]; 80 g/ha): 100%
Pre-emergence effect at 20 g/ha against KCHSC in % (KCHSC (Kochia scoparia) [8]; 20 g/ha): 100%
Pre-emergence effect at 80 g/ha against KCHSC in % (KCHSC (Kochia scoparia) [8]; 80 g/ha): 100%
Pre-emergence effect at 20 g/ha against ALOMY in % ([9]; 20 g/ha): 80%
Pre-emergence effect at 80 g/ha against ALOMY in % ([9]; 80 g/ha): 100%
Post-emergence effect at 20 g/ha against MATIN in % ([10]; 20 g/ha): 100%
Post-emergence effect at 80 g/ha against MATIN in % ([10]; 80 g/ha): 100%
Pre-emergence effect at 20 g/ha against AMARE in % ([11]; 20 g/ha): 100%
Pre-emergence effect at 80 g/ha against AMARE in % ([11]; 80 g/ha): 100%
Post-emergence effect at 20 g/ha against POLCO in % ([12]; 20 g/ha): 90%
Post-emergence effect at 80 g/ha against POLCO in % ([12]; 80 g/ha): 100%
Post-emergence effect at 20 g/ha against ALOMY in % ([13]; 20 g/ha): 80%
Post-emergence effect at 80 g/ha against ALOMY in % ([13]; 80 g/ha): 90%
Post-emergence effect at 20 g/ha against VIOTR in % (VIOTR (Viola tricolor) [14]; 20 g/ha): 100%
Post-emergence effect at 80 g/ha against VIOTR in % (VIOTR (Viola tricolor) [14]; 80 g/ha): 100%
Pre-emergence effect at 20 g/ha against AVEFA in % (AVEFA (Avena fatua); 20 g/ha): 80%
Pre-emergence effect at 80 g/ha against A VEFA in % (AVEFA (Avena fatua); 80 g/ha): 100%
Post-emergence effect at 80 g/ha against LOLRI in % (LOLRI (Lolium rigidum) [15]): 90%
Post-emergence effect at 20 g/ha against VERPE in % (VERPE (Veronica persica) [16]; 20 g/ha): 90%
Post-emergence effect at 80 g/ha against VERPE in % (VERPE (Veronica persica) [16]; 80 g/ha): 100%
Post-emergence effect at 20 g/ha against SETVI in % (SETVI (Setaria viridis) [17]; 20 g/ha): 100%
Post-emergence effect at 80 g/ha against SETVI in % (SETVI (Setaria viridis) [17]; 80 g/ha): 100%
Pre-emergence effect at 20 g/ha against SETVI in % (SETVI (Setaria viridis) [18]; 20 g/ha): 90%
Pre-emergence effect at 80 g/ha against SETVI in % (SETVI (Setaria viridis) [18]; 80 g/ha): 100%
Post-emergence effect at 20 g/ha against DIGSA in % ([19]; 20 g/ha): 90%
Post-emergence effect at 80 g/ha against DIGSA in % ([19]; 80 g/ha): 90%
Pre-emergence effect at 20 g/ha against VIOTR in % (VIOTR (Viola tricolor) [20]; 20 g/ha): 100%
Pre-emergence effect at 80 g/ha against VIOTR in % (VIOTR (Viola tricolor) [20]; 80 g/ha): 100%
Pre-emergence effect at 80 g/ha against ABUTH in % [21]: 100%
Pre-emergence effect at 20 g/ha against DIGSA in % ([22]; 20 g/ha): 100%
Pre-emergence effect at 80 g/ha against DIGSA in % ([22]; 80 g/ha): 100%
Pre-emergence effect at 20 g/ha against POLCO in % ([23]; 20 g/ha): 90%
Pre-emergence effect at 80 g/ha against POLCO in % ([23]; 80 g/ha): 90%
Pre-emergence effect at 20 g/ha against MATIN in % ([24]; 20 g/ha): 100%
Pre-emergence effect at 80 g/ha against MATIN in % ([24]; 80 g/ha): 100%
Post-emergence effect at 20 g/ha against PHBPU in % ([25]; 20 g/ha): 90%
Post-emergence effect at 80 g/ha against PHBPU in % ([25]; 80 g/ha): 100%
